Where a SMILES comes first, the peptide text is derived from it. Bridges are numbered along the chain shown (N, C = ends). The star is where a group is joined. MeO(CH2CH2O)23CH2CH2CO = COCCOCCOCCOCCOCCOCCOCCOCCOCCOCCOCCOCCOCCOCCOCCOCCOCCOCCOCCOCCOCCOCCOCCOCCC(=O)*
Experiments:
[1] = target: T1, NPR-B (Mus musculus, UniProt Q6VVW5); test: stimulation of cGMP production in NIH3T3 cells; format: cell-based, murine; conditions: NIH3T3 cells
T1 construct: Murine NIH3T3 cells express endogenously the CNP signaling receptor, NPR-B; endogenous in cells; host or cells: NIH3T3
T1 sequence (Q6VVW5 17-1047): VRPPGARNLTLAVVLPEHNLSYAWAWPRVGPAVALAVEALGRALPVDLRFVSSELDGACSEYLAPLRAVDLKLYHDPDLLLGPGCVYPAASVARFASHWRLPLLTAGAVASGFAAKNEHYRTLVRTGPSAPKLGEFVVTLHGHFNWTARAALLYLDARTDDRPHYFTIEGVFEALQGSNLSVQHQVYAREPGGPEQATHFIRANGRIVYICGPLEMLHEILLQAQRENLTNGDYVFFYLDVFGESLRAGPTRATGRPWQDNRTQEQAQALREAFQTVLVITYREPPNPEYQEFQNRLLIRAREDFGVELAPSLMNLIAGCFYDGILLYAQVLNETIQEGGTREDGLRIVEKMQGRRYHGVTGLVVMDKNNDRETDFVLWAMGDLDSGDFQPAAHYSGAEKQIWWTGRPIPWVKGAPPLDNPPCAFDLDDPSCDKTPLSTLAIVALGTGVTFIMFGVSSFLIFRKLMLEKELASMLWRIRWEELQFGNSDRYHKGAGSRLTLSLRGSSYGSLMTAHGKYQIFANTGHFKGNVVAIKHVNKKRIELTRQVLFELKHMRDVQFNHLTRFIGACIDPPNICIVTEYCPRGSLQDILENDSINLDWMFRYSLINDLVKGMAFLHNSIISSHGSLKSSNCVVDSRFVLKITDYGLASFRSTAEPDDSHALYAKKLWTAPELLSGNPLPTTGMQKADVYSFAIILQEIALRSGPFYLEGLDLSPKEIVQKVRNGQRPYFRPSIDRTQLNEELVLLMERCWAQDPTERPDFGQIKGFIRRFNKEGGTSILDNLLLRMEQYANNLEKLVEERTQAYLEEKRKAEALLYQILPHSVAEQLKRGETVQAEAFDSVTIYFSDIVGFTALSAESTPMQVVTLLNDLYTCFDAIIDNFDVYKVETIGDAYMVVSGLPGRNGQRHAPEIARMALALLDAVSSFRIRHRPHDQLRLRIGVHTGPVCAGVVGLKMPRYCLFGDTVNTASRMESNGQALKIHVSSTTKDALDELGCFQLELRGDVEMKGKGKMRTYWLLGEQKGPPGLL
Summary of the method: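 NIH3T3 cells (endogenous murine NPR-B) preincubated 15 min at 37° C. in PBS/DMEM with 0.75 mM isobutylmethylxanthine, then given CNP variant for 15 min at 37° C. cGMP in lysates by CatchPoint cGMP assay, duplicates. Values at 10 nM or 1 uM variant normalized to cell number and to 1 uM wtCNP22.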

[2] = system: cGMP; test: plasma cGMP concentration in rats; format: in vivo, rat
Protocol: Recombinant wild-type CNP22, CNP37 and PEO24-GANRR-CNP22 (K4R) (SEQ ID NO: 36) were evaluated.
Plasma cGMP concentrations in the sample at 5, 30, 60 and 90 minutes after i.v. dosing, or at 5, 30, 60, 120 and 180 minutes after s.c. dosing, were determined by the competitive RIA using anti-cGMP monoclonal antibody. Standard samples were prepared. 100 uL of the assay samples (standard solutions for the calibration curve or the diluted plasma samples for cGMP determination) were transferred to test tubes. Then 100 uL of anti-cGMP monoclonal antibody solution and 100 uL of ^125I-labeled succinyl cGMP tyrosine methyl ester solution were added to the tubes, respectively. All tubes were kept at 4° C. overnight. After the addition of 500 uL dextran charcoal solution, the tubes were vortexed and then placed on ice for 10 minutes. The reaction mixture was centrifuged and 500 uL of the supernatant was transferred from each sample to a new test tube. The amount of radiation (gamma line) in the supernatant was measured by a gamma-counter.

SMILES: CC[C@H](C)[C@@H]1NC(=O)[C@H](CCCNC(=N)N)NC(=O)[C@H](CC(=O)O)NC(=O)[C@H](CC(C)C)NC(=O)[C@H](CCCCN)NC(=O)[C@H](CC(C)C)NC(=O)CNC(=O)[C@H](Cc2ccccc2)NC(=O)[C@@H](NC(=O)CNC(=O)[C@H](CCCNC(=N)N)NC(=O)[C@H](CO)NC(=O)[C@H](CC(C)C)NC(=O)CNC(=O)[C@H](CCCNC(=N)N)NC(=O)[C@H](CCCNC(=N)N)NC(=O)[C@H](CC(N)=O)NC(=O)[C@H](C)NC(=O)CNC(=O)CCOCCOCCOCCOCCOCCOCCOCCOCCOCCOCCOCCOCCOCCOCCOCCOCCOCCOCCOCCOCCOCCOCCOCCOC)CSSC[C@@H](C(=O)O)NC(=O)CNC(=O)[C@H](CC(C)C)NC(=O)CNC(=O)[C@H](CO)NC(=O)[C@H](CCSC)NC(=O)[C@H](CO)NC(=O)CNC1=O [PEO24-GANRR-CNP22(K4R)] ({MeO(CH2CH2O)23CH2CH2CO}-GANRRGLSRGCFGLKLDRIGSMSGLGC-OH; disulfide 11-27)
- NPR-B stimulation activity / cGMP production compared with wtCNP22 (in words) [1]: stimulated greater cGMP production than PEO24-CNP22 and PEO24-CNP22 (K4R)
- plasma levels of cGMP compared with CNP22 ([2]; i.v. 20 nmol/kg, at 30, 60 and 90 minutes): much higher plasma levels of cGMP
- plasma concentrations of cGMP compared with CNP22 ([2]; s.c. 50 nmol/kg): substantially higher plasma concentrations of cGMP

— USRE48267E1, “Variants of C-type natriuretic peptide” (priority 2009, dated 2020)
